Assays:
spiggin mRNA [1] = assay: Hormone implant dose response analysis of spiggin mRNA in kidney (slot blot, FIG. 3); type: in vivo, three-spined stickleback (Gasterosteus aculeatus); conditions: hormone in silastic capsule implanted in abdominal cavity, one month exposure
Protocol: Hormones at different concentrations were dissolved in […] of coconut oil and placed within silastic capsules (Dow Corning, internal diameter 0.6 mm, outer diameter 1.2 mm, length 5 mm). The sealed capsules were implanted into the abdominal cavity of each fish which were subsequently placed in aquaria containing 200 l of brackish water (0.5% salinity) at 17° C. under a stimulatory photoperiod of L:D 16:8. Following one month exposure the fish were sacrificed and the required organs removed by dissection and stored at −70° C.
[…] total RNA was combined with 90 ml of 20×SSC and 60 ml 37% formaldehyde. The final volume was adjusted to 300 ml with MQ water. Each preparation was transferred onto nylon membrane (Amersham Pharmacia Biotech) using a Minifold II Slot Blot apparatus (Schleicher & Schuell). The RNA was bound onto the membrane by cross-linking in a CL-1000 UV apparatus (UVP). Membranes were radioactively probed as described below (Paragraph 10) and the relative levels of mRNA were determined using a GS-250 Molecular Phosphoimager coupled to the Molecular Analyst (Version 1:41) package (Bio Rad). All dose-response determinations were performed in triplicate and the results were expressed as the mean (±SD) for each hormone and dose assayed. […]

spiggin = conditions: 11-KT treatment; cited from earlier work
spiggin mRNA [2] = assay: Methyltestosterone induction of spiggin mRNA via water in juvenile fish (slot blot, FIG. 5); type: in vivo, three spined stickleback; conditions: exposure via water, 10 days, whole fish homogenate
Protocol: Juvenile three spined sticklebacks, with a body weight of approximately 100 mg, were exposed to different doses (100 pM, 10 nM and 1 uM) of methyltestosterone or to a combination of 10 nM methyltestosterone and 10 uM flutamide (an antiandrogen). After 10 days the fish were sacrificed. Whole fish were homogenized and spiggin mRNA levels were determined using slot blot analysis.

Compound | Inducibility of spiggin expression in kidney (spiggin mRNA [1]) | Inducibility of spiggin production (spiggin) | Methyltestosterone concentration effective at inducing spiggin mRNA (spiggin mRNA [2]) [pM]
C[C@]12CC(=O)[C@H]3[C@@H](CCC4=CC(=O)CC[C@@]43C)[C@@H]1CC[C@@H]2O [11-ketotestosterone] | inducible | inducible | –
C[C@]12CCC(=O)C=C1CC[C@@H]1[C@@H]2CC[C@@]2(C)[C@H]1CC[C@]2(C)O [methyltestosterone] | – | – | ≥ 100
